The source made the active and inactive calls. The calls are words filed in the database; no cut-off is given here.

We go through six molecules from ChEMBL document CHEMBL6096653, “α-GalCer sp2-iminoglycolipid analogs as CD1d-dependent iNKT modulators: Evaluation of their immunotherapeutic potential in murine models of asthma and autoimmune hepatitis” (Eur J Med Chem, 2025).

In data set [1] the test system is Mus musculus. Briefly: Immunostimulatory activity in Th1-biased (OT-1) C57BL/6 mouse model transplanted with mouse Splenocyte assessed as increase in OVA-specific CD8+ T cells proliferation at 1 to 400 ug, ip pretreated with compound and ovalbumin for 2 hrs and measured after 3 days by flow cytometry analysis. Format: functional, organism-based. As to conditions: dose 1-400 µg, time 74.0 hrs. In general terms: A flow cytometer gives signals particle by particle.

For data set [2], the system named is Splenocyte. Briefly: Immunostimulatory activity in BALB/c mouse Splenocyte assessed as induction of IL-4 level at 10 to 25 uM incubated for 48 hrs by ELISA analysis. Format: functional, cell-based. As to conditions: dose 10-25 µM. (In an ELISA, binding on a coated surface is turned into a signal by an enzyme label.)
Data set [3] relates to Mus musculus. Briefly: Anti-inflammatory activity in ConA-induced autoimmune hepatitis C57BL/6 mouse model assessed as reduction in TNF-alpha level in serum at 20 microg/g, ip pretreated with ConA for 18 hrs followed by compound addition and measured after 18 hrs. Format: functional, organism-based. Particulars: dose 20.0 µg/g.
For data set [4], the system named is Mus musculus. The experiment in a line: Anti-inflammatory activity in ConA-induced autoimmune hepatitis C57BL/6 mouse model assessed as reduction in IL-6 level in serum at 20 microg/g, ip pretreated with ConA for 18 hrs followed by compound addition and measured after 18 hrs. Format: functional, organism-based. As to conditions: dose 20.0 µg/g.
In data set [5] the test system is Splenocyte. Briefly: Immunostimulatory activity in Cd1d knockout BALB/c mouse Splenocyte assessed as effect on of IL-4 level at 10 to 25 uM incubated for 48 hrs by ELISA analysis. It counts as functional, cell-based. As to conditions: dose 10-25 µM.
Data set [6] concerns Splenocyte. The experiment in a line: Immunostimulatory activity in Cd1d knockout BALB/c mouse Splenocyte assessed as effect on of IFNgamma level at 10 to 25 uM incubated for 48 hrs by ELISA analysis. It counts as functional, cell-based. As to conditions: dose 10-25 µM.
Data set [7] concerns iNKT hybridoma DN3A4-1.2 cell. The experiment in a line: Immunostimulatory activity in mouse iNKT hybridoma DN3A4-1.2 cell assessed as induction of IL-2 level at 10 to 25 uM incubated for 48 hrs by ELISA analysis. It counts as functional, cell-based. Particulars: dose 10-25 µM.
Data set [8] can be described thus: Toxicity in C57BL/6J mouse assessed as decrease in AST level in serum at 20 microg/g, ip measured after 18 hrs. It counts as organism-based. As to conditions: in vivo, dose 20 µg/g.
Data set [9] has as its system iNKT hybridoma DN3A4-1.2 cell. The experiment in a line: Immunostimulatory activity in mouse iNKT hybridoma DN3A4-1.2 cell assessed as induction of IL-2 secretion at 10 to 25 uM incubated for 48 hrs in presence of alpha-GalCer by ELISA analysis. As to conditions: dose 10-25 µM. It counts as functional, cell-based.
Data set [10] has as its system Mus musculus. Briefly: Anti-asthmatic activity in alpha-Galcer-induced female BALB/c mouse model assessed as reduction in TNF-alpha mRNA level in lung at 20 microg/g ip measured after 24 hrs by RT-PCR analysis. As to conditions: dose 20.0 µg/g. Format: functional, organism-based.
Data set [11] concerns Splenocyte. The experiment in a line: Immunostimulatory activity in BALB/c mouse Splenocyte assessed as induction of IFNgamma level at 10 to 25 uM incubated for 48 hrs by ELISA analysis. Format: functional, cell-based. As to conditions: dose 10-25 µM.
In data set [12] the test system is Mus musculus. The experiment in a line: Anti-asthmatic activity in alpha-Galcer-induced female BALB/c mouse model assessed as inhibition of airway hyperreactivity at 20 microg/g ip measured after 24 hrs. As to conditions: dose 20.0 µg/g. It counts as functional, organism-based.
Data set [13] has as its system Splenocyte. Briefly: Immunostimulatory activity in BALB/c mouse Splenocyte assessed as induction of IL-4 level at 25 uM incubated for 48 hrs by ELISA analysis. Format: functional, cell-based.
A short description of data set [14]: Toxicity in C57BL/6J mouse assessed as liver damage at 20 microg/g, ip measured after 18 hrs by H and E staining based analysis. Format: organism-based. Particulars: in vivo, dose 20 µg/g.
For data set [15], the system named is Mus musculus. Briefly: Anti-asthmatic activity in alpha-Galcer-induced female BALB/c mouse model assessed as reduction in Gob5 mRNA level in lung at 20 microg/g ip measured after 24 hrs by RT-PCR analysis. Format: functional, organism-based. Particulars: dose 20.0 µg/g.
Data set [16] has as its system Mus musculus. Briefly: Immunostimulatory activity in ip dosed Th1-biased (OT-1) C57BL/6 mouse model transplanted with mouse Splenocyte assessed as increase in OVA-specific CD8+ T cells proliferation pretreated with compound and ovalbumin for 2 hrs and measured after 2 days by flow cytometry analysis. Format: functional, organism-based. As to conditions: dose 400.0 µg, time 50.0 hrs.

Data set [17] has as its system Mus musculus. Briefly: Anti-asthmatic activity in alpha-Galcer-induced female BALB/c mouse model assessed as reduction in Muc5ac mRNA level in lung at 20 microg/g ip measured after 24 hrs by RT-PCR analysis. Format: functional, organism-based. As to conditions: dose 20.0 µg/g.
The subject of data set [18] is Mus musculus. Briefly: Immunostimulatory activity in ip dosed Th1-biased (OT-1) C57BL/6 mouse model transplanted with mouse Splenocyte assessed as increase in OVA-specific CD8+ T cells proliferation pretreated with compound and ovalbumin for 2 hrs and measured after 3 days by flow cytometry analysis. It counts as functional, organism-based. As to conditions: dose 400.0 µg.

Data set [19] has as its system Splenocyte. Briefly: Immunostimulatory activity in BALB/c mouse Splenocyte assessed as induction of IFNgamma level at 25 uM incubated for 48 hrs by ELISA analysis. It counts as functional, cell-based.
The subject of data set [20] is Mus musculus. Briefly: Anti-asthmatic activity in alpha-Galcer-induced female BALB/c mouse model assessed as reduction in IL-6 mRNA level in lung at 20 microg/g ip measured after 24 hrs by RT-PCR analysis. Particulars: dose 20.0 µg/g. Format: functional, organism-based.
Data set [21] has as its system Mus musculus. The experiment in a line: Immunostimulatory activity in Th1-biased (OT-1) C57BL/6 mouse model transplanted with mouse Splenocyte assessed as increase in OVA-specific CD8+ T cells proliferation at 1 to 400 ug, ip pretreated with compound and ovalbumin for 2 hrs and measured after 2 days by flow cytometry analysis. It counts as functional, organism-based. Particulars: dose 1-400 µg, time 50.0 hrs.

Data set [22] is described as follows: Toxicity in C57BL/6J mouse assessed as decrease in ALT level in serum at 20 microg/g, ip measured after 18 hrs. It counts as organism-based. As to conditions: in vivo, dose 20 µg/g.
For data set [23], the system named is Splenocyte. Briefly: Cytotoxicity against mouse Splenocyte assessed as cell viability at 25 uM by AlamarBlue assay. Format: toxicity, cell-based.

With `CCCCCCCCCCCCCC[C@@H](O)[C@@H](O)[C@H](CO[C@@H]1[C@H](O)[C@@H](O)[C@@H](O)[C@H]2COC(=O)N21)n1cc(CCCCCCCC)nn1`, the outcome in data set [1], in [2], in data set [3], in data set [4], in data set [7] and in data set [9] was Active. Moreover, the outcome in [10], in data set [11], in data set [12], in data set [13], in data set [15] and in data set [17] was Active. Also, the result in data set [19], in [20] and in data set [21] was Active. In addition, the outcome in [5] and in data set [6] was inactive. Also, the Activity result is “Non-toxic” in data set [8]; “Non-toxic” in data set [14]; “Dose-dependent-effect” in data set [16]; “Dose-dependent-effect” in [18]; “Non-toxic” in [22].

In the case of `CCCCCCCCCCCCCC[C@@H](O)[C@@H](O)[C@H](CO[C@@H]1[C@H](O)[C@@H](O)[C@@H](O)[C@H]2COC(=O)N21)n1cc(CCCC)nn1`, the result in data set [19] was inactive.

For the molecule `CCCCCCCCCCCCCCCCCCCCCCCCCC(=O)N[C@@H](CO[C@@H]1[C@H](O)[C@@H](O)[C@H](O)[C@H]2COC(=O)N21)[C@H](O)[C@H](O)CCCCCCCCCCCCCC`, the outcome in [7], in data set [13] and in [19] was inactive. Also, the outcome in [9] was Active.

Regarding `CCCCCCCCCCCCCC[C@@H](O)[C@@H](O)[C@H](CO[C@@H]1[C@H](O)[C@@H](O)[C@@H](O)[C@H]2COC(=O)N21)n1cc(CCCCCCCCCCCC)nn1`, the outcome in data set [2] and in data set [13] was Active. Besides, the outcome in data set [5], in data set [6] and in data set [19] was inactive.

For `CCCCCCCCCCCCCCCCCCCCCCCCCC(=O)N[C@@H](CO[C@@H]1[C@H](O)[C@@H](O)[C@@H](O)[C@H]2COC(=O)N21)[C@H](O)[C@H](O)CCCCCCCCCCCCCC`, the outcome in data set [7], in data set [13] and in data set [19] was inactive. The outcome in data set [9] was Active.

As for `CCCCCCCCCCCCCC[C@@H](O)[C@@H](O)[C@H](CO[C@@H]1[C@H](O)[C@@H](O)[C@@H](O)[C@H]2COC(=O)N21)n1cc(CCCCCC)nn1`, the result in data set [2] and in data set [13] was Active. The result in data set [5], in data set [6] and in [19] was inactive. Further, the Activity entry in data set [23] was “Toxic”.
